According to patent US20180078615A1, “USE OF CCL2 TO INHIBIT ABNORMAL UTERINE BLEEDING” (UNIVERSITY OF SOUTH FLORIDA, priority 2015, published 2018):

Experiments:
[1] = tested on: VSMCs; experiment: Whole genome microarray analysis (Illumina HumanHT-12 v4) of cultured VSMCs treated with progestins; format: cell-based, human; details: VSMCs treated by P4
Text: Cultured VSMCs (n=3) treated with control medium or medium containing medroxyprogesterone acetate (MPA, 10^−7 M), or etonogestrel (ETO, 10^−7 M) were processed for whole genome analyses using Illumina Human microarray kit. After qRT-PCR confirmation of several up and down regulated genes from microarray data, Ingenuity Pathway Analysis (IPA) determined relevant upstream signaling of LAPC altered gene expression. To investigate the role of genes and relevant signaling molecules identified by IPA, VSMCs (n=3) treated with MPA or ETO±1 or 10 ng/ml recombinant CCL2 (rCCL2)±STAT1 inhibitor, 5′-methyl-thioadenosine (MTA, 100 μM) were analyzed by BrdU incorporation proliferation, TUNEL based ELISA apoptosis and Transwell insert migration assays.
VSMCs were thawed and cultured in medium 231 (M231; Life Technologies) with smooth muscle growth supplement (5% FBS; 2 ng/mL human basic fibroblast growth factor, 0.5 ng/mL human epidermal growth factor, 5 ng/mL heparin, 0.2 μg/mL insulin and 5 μg/mL BSA; Life Technologies) with 100 U/mL penicillin, 100 μg/mL streptomycin, 0.25 μg/mL fungizone. Confluent VSMCs were washed twice with 1×PBS to remove residual serum, passaged in 96-well or 6-well plates and incubated in parallel in M231 with 1% charcoal striped FBS with 0.1% ethanol (vehicle, control) or 10^−7 M MPA (Sigma-Aldrich) or 10^−7 M ETO (Organon) or 10^−7 M P4 (Sigma-Aldrich) for 15 min, 6, 48, and 72 h. VSMCs were then washed with ice-cold PBS and stored at −80° C. for further RNA and protein analyses.
Total RNA was isolated using Qiagen miRNeasy Mini Kit (Qiagen) and RNeasy MinElute Cleanup Kit (Qiagen). The quality of isolated RNAs was confirmed using an Agilent 2100 Bioanalyzer. Microarray analysis was limited to those specimens in which RNA Integrity Number exceeded 8. Microarray processes were performed in the Keck Biotechnology Resource Laboratory at Yale University (New Haven, Conn.) using Illumina Human HT-12 v4 BeadChip (Illumina). Raw data without normalization were analyzed by GeneSpring GX12.5 software (Agilent Technologies-Silicon Genetics). Normalization was performed as described (35). Genes with a fold-change >1.25 and a P value<0.05 were considered differentially expressed. Ingenuity Pathway Analysis (IPA) software (Qiagen) explored molecular and biological networks related to differentially expressed genes.

[2] = tested on: VSMCs; experiment: Transwell insert migration assay; format: cell-based, human; details: 12-h incubation, 10^−7 M; control 48.4%
Description: VSMCs (75,000 cells/200 μL) were suspended in M231 containing 1% charcoal striped FBS and either 0.1% ethanol (vehicle control) or the corresponding steroids and seeded onto insert wells (transwell filter with 12-μm pores; EMD Millipore). The inserts were then placed in 24-well plates containing 500 μL M231 with 1% charcoal striped FBS. After 12 h, cells remaining on the upper surface of the filter were removed with a cotton swab. Migrated cells were trypsinized, centrifuged, and resuspended in 200 μL of M231 medium. The cell suspensions were mixed with 200 μL 10% ethanol containing 0.4% Trypan blue dye and the live cell number was counted by Countess Automated Cell Counter (Invitrogen). See further details in SI Materials and Methods.
Cultured VSMCs were grown in T-75 cell culture flasks in M231 (Life Technologies) with smooth muscle growth supplement (Life Technologies) with 100 U/mL penicillin, 100 μg/mL streptomycin, 0.25 μg/mL fungizone. Confluent VSMCs were washed twice with 1×PBS to remove residual serum, and then trypsinized, resuspended (75,000 cells per 200 μL per well) in M231 with 1% charcoal striped FBS with 0.1% ethanol (vehicle, control), 10^−7 M MPA (Sigma-Aldrich), 10^−7 M ETO (Organon), or 10^−7 M P4 (Sigma-Aldrich)±rCCL2 (R&D Systems) and seeded on insert wells (transwell filter with 12-μm pores; EMD Millipore), which were then placed in 24-well plates containing 500 μL M231 with 1% charcoal striped FBS. After 12 h, cells remaining on the upper surface of the filter were removed with a cotton swab. Migrated cells attached to the lower surface of each insert or to the surface of lower wells were collected by trypsinization, followed by centrifugation and resuspension in 200 μL of M231 medium. The cell suspensions were mixed with 200 μL 10% ethanol containing 0.4% Trypan blue dye (selectively stains only dead cells blue, whereas live cells with intact cell membranes remain unstained) for 5 min. A mixture of 100 μL M231 and 100 μL 10% ethanol containing 0.4% Trypan blue dye was used as a negative control. To detect live cell numbers, 10 μL of final cell/Trypan blue dye suspension from each treatment condition was pipetted into Countess Cell Counting Chamber Slide and counted by using Countess Automated Cell Counter (Invitrogen). The counting procedure was performed in duplicate.

`CC(=O)[C@H]1CC[C@H]2[C@@H]3CCC4=CC(=O)CC[C@]4(C)[C@H]3CC[C@]12C` [P4, progesterone] was tested. Which “Fold-change, Chemokine (C-C motif) ligand 2 (CCL2)” value [1] did it give?
The value was −1.289.

What about the “Fold-change, Chromosome 9 ORF 167 (C9orf167)” value [1] of the same compound?
Its value is −1.283.

And the “Fold-change, Complement factor B (CFB)” value [1]?
The value was −1.309.

And the “Fold-change, Complement factor H, transcript variant 2 (CFH)” value [1]?
The value was 1.271.

What about the “Fold-change, Cyclin C, transcript variant 2 (CCNC)” value [1] of the same compound?
The value was 1.343.

What about the “Fold-change, Eukaryotic translation initiation factor 4 gamma, 2, transcript variant 1 (EIF4G2)” value [1] of the same compound?
The value was 1.3.

What about the “Fold-change, Fukutin, transcript variant 2 (FKiTN)” value [1] of the same compound?
Its value is −1.299.

And the “Fold-change, G protein-coupled receptor 1 (GPR1)” value [1]?
Its value is −1.283.

What about the “Fold-change, Homo sapiens thioredoxin domain containing 5, transcript variant 2 (TXNDC5)” value [1] of the same compound?
The value was 1.361.

And the “Fold-change, Hypothetical LOC100190938 (LOC100190938), transcript variant 2, noncoding RNA” value [1]?
The value was −1.358.

And the “Fold-change, Hypothetical gene supported by AK125735 (LOC441087)” value [1]?
The value was −1.467.

What about the “Fold-change, Hypothetical protein FLJ40504 (FLJ40504)” value [1] of the same compound?
The value was −1.27.

And the “Fold-change, Hypoxia-inducible factor 1, a subunit, transcript variant 1 (HIF1A)” value [1]?
Its value is 1.328.

And the “Fold-change, Integrin beta 1, transcript variant 1C-2 (ITGB1)” value [1]?
Its value is 1.293.

What about the “Fold-change, Interleukin 33 (IL33)” value [1] of the same compound?
The value was 1.275.

And the “Fold-change, Janus kinase 1 (JAK1)” value [1]?
The value was 1.292.

What about the “Fold-change, Keratin 34 (KRT34)” value [1] of the same compound?
The value was 1.268.

What about the “Fold-change, Microtubule-associated protein 1A (MAP1A)” value [1] of the same compound?
Its value is −1.269.

What about the “Fold-change, Minichromosome maintenance complex component 8, transcript variant 1 (MCM8)” value [1] of the same compound?
The value was −1.32.

What about the “Fold-change, Mitogen-activated protein kinase kinase 2 (MAP2K2)” value [1] of the same compound?
Its value is −1.346.

And the “Fold-change, N-deacetylase/N-sulfotransferase (heparan glucosaminyl) 1 (NDST1)” value [1]?
Its value is −1.306.

And the “Fold-change, OCIA domain containing 1, transcript variant 5 (OCIAD1)” value [1]?
The value was −1.275.

What about the “Fold-change, PREDICTED: misc_RNA (LOC100131609)” value [1] of the same compound?
Its value is 1.266.

And the “Fold-change, Paralemmin, transcript variant 1 (PALM)” value [1]?
The value was −1.26.

What about the “Fold-change, Polyribonucleotide nucleotidyltransferase 1 (PNPT1)” value [1] of the same compound?
Its value is −1.286.

And the “Fold-change, Retinoic acid receptor responder (tazarotene induced) 1, transcript variant 1, (RARRES1)” value [1]?
The value was −1.271.

What about the “Fold-change, Retinoic acid receptor responder (tazarotene induced) 1, transcript variant 2, (RARRES1)” value [1] of the same compound?
The value was −1.289.

And the “Fold-change, Ring finger protein 11 (RNF11)” value [1]?
Its value is 1.256.

What about the “Fold-change, Serum amyloid A1, transcript variant 1 (SAA1)” value [1] of the same compound?
The value was −1.324.

What about the “Fold-change, Serum amyloid A1 transcript variant 2 (SAA1)” value [1] of the same compound?
The value was −1.566.

And the “Fold-change, Solute carrier family 44, member 1 (SLC44A1)” value [1]?
Its value is 1.26.

And the “Fold-change, Staphylococcal nuclease and tudor domain containing 1 (SN D1)” value [1]?
The value was −1.25.

What about the “Fold-change, Sterol-C4-methyl oxidase-like, transcript variant 1 (SC4MOL)” value [1] of the same compound?
The value was 1.296.

And the “Fold-change, Superoxide dismutase 2, mitochondria! transcript variant 2 (SOD2)” value [1]?
Its value is −1.362.

What about the “Fold-change, Thioredoxin reductase 1, transcript variant 4 (TXNRD1)” value [1] of the same compound?
Its value is 1.255.

And the “Fold-change, Ubiquitin-like modifier activating enzyme 3, transcript variant 2 (UBA3)” value [1]?
The value was 1.293.

What about the “Fold-change, Zinc finger protein 682, transcript variant 1 (ZNF682)” value [1] of the same compound?
The value was −1.254.

What about the “Fold-change, cDNA FLJ20769 fis, clone COL06674 (PREDICTED: Receptor tyrosine kinase-like orphan receptor 1)” value [1] of the same compound?
The value was 1.271.

And the “Fold-change, Armadillo repeat containing, X-linked 3, transcript variant 2 (ARMCX3)” value ([1]; table entry 5)?
Its value is 1.298.

And the “Fold-change, Armadillo repeat containing, X-linked 3, transcript variant 2 (ARMCX3)” value ([1]; table entry 10)?
The value was 1.284.

And the migration rate [2]?
Its migration rate is 39.4%.
